Experiments:
rabbit eyes = test: Eye irritation study; type: in vivo, albino rabbits; conditions: 0.1 ml instilled into one eye, nine rabbits
Protocol: The test procedure employed is described in the Appraisal of the Safety of Chemicals in Foods, Drugs and Cosmetics, published by the Association of Food and Drug Officials of the United States. Nine normal healthy albino rabbits were used for this study.
Each of the nine animals had 0.1 ml of the test material (benzyl linoleate) instilled into one eye of each test animal. The other eye was untreated and observed as a control. Two seconds after instillation of the test material, a washout was conducted in 3 of the rabbits using 20 ml. of warm water. Four seconds after test material instillation, washout was conducted in 3 additional rabbits using 20 ml. of warm water. All animals were examined frequently during the seven following days.

Skin = test: Dermal irritation study (primary irritation of the skin); type: in vivo; conditions: 0.5 ml/patch, 4 patches on each of 6 rabbits
Protocol: The test procedure employed is described as Local Toxicity, Primary Irritation of the Skin in “Appraisal of the Safety of Chemicals in Foods, Drugs and Cosmetics” published by the Food & Drug Officials of the United States.
The dose to test the response was 0.5 ml/patch with 4 patches on each of 6 rabbits. The results indicated a primary skin irritation index of 2.375.

Rats = test: Oral LD50; type: in vivo
Description: The test procedure employed is described in the “Appraisal of the Safety of Chemicals in Foods, Drugs and Cosmetics” published by the Food & Drug Officials of the United States.

In the case of `CCCCC/C=C\C/C=C\CCCCCCCC(=O)OCc1ccccc1` [Benzyl Linoleate], the “eye irritation classification according to the reference” value (rabbit eyes) is reported as “non-irritating”, the “irritation in rabbit eyes” value (rabbit eyes; with and without washout, observed seven days) is reported as “no irritation” and the “primary skin irritation index” value (Skin) is reported as 2.375. The “skin irritation classification in this test system” value (Skin) was “moderate irritant”, the “Oral LD50” value (Rats; rat, in vivo, po) was 7.0 mL/kg and the “gross autopsy findings on dead animals” value (Rats; rats, oral LD50 study) was “hemorrhagic lungs, dark livers and spleens, slight hemorrhagic stomachs and intestines and pale kidneys”.

From patent US6365629B1, “Fatty acid esters of aromatic alcohols and their use in cosmetic formulations” (Alto, Inc., priority 1999, dated 2002)
